Assay results as given in ChEMBL document CHEMBL1201862, “PubChem BioAssay data set” (2004).
Blank lines part the entries; values can stand above or below the compound they belong to. The source made the active and inactive calls.

How the values were obtained:
[1] = target: T1, Estrogen receptor (Homo sapiens, UniProt P03372); experiment: potentiators of ERα–SRC-1 coactivator binding, dose response, biochemical, TR-FRET, ERα LBD (AID 737)
T1 sequence (P03372 whole entry): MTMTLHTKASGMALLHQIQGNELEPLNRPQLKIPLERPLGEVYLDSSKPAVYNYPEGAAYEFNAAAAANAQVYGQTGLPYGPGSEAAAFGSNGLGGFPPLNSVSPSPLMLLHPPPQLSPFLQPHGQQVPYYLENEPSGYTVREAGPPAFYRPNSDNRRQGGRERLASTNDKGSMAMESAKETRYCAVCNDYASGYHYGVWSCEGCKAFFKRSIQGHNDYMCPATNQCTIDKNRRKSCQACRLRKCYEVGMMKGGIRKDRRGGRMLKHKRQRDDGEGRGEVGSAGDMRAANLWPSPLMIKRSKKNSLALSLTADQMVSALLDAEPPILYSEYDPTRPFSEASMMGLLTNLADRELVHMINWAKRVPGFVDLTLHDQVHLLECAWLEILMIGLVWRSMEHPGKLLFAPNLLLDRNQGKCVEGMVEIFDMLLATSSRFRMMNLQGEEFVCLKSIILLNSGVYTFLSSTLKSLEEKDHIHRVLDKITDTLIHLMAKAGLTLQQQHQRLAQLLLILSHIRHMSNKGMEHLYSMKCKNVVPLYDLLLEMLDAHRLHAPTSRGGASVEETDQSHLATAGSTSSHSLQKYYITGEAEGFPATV

[2] = target: T2, Heat shock factor protein 1 (Mus musculus, UniProt P38532); experiment: inhibition of MG132-induced HSE-luciferase signal, confirmation, cell-based, NIH3T3, luminescence, dose retest (AID 2382); type: functional;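 also: NIH3T3 fibroblasts with HSF1-driven luciferase reporter stressed by proteasome inhibitor MG132; luminescence from HSF1-driven luciferase expression after 8 hours of MG132 stress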
T2 sequence (P38532 whole entry): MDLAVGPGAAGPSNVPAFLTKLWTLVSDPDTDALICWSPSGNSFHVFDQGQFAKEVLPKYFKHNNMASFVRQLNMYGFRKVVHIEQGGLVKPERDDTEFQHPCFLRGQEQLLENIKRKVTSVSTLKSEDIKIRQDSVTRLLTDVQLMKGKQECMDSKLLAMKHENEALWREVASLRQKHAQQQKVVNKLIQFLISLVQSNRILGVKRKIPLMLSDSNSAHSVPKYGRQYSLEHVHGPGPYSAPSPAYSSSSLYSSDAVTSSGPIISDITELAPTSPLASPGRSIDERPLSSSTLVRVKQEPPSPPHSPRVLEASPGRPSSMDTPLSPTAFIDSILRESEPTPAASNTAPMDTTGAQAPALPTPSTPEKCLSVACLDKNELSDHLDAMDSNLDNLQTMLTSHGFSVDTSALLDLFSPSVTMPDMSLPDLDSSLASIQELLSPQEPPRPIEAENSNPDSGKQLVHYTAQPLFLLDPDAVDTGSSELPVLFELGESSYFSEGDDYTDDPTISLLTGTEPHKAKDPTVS

[3] = target: T3, NADPH oxidase 1 (Homo sapiens, UniProt Q9Y5S8); experiment: Late-stage luminescence-based cell-based dose response assay to identify inhibitors of NADPH oxidase 1 (NOX1): Synthesized analogs.; type: functional
T3 sequence (Q9Y5S8 whole entry): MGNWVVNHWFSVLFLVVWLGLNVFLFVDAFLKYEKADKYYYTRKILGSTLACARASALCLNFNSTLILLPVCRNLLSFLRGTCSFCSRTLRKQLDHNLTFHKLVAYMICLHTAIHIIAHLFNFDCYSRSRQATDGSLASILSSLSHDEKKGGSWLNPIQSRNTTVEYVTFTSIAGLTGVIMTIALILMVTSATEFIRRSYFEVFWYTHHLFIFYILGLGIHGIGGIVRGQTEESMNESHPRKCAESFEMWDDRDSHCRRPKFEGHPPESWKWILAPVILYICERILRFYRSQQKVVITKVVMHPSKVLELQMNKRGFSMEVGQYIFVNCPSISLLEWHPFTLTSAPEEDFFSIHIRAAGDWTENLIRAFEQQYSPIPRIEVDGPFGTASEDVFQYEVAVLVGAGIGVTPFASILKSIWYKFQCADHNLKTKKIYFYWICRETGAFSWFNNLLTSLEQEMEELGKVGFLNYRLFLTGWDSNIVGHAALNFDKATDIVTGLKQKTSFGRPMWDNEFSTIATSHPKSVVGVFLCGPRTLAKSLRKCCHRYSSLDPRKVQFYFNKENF

[4] = target: T4, Short transient receptor potential channel 4 (Mus musculus, UniProt Q9QUQ5); experiment: mouse TRPC4 channel inhibitors, dose response, cell-based, HEK293 TRPC4/mu-opioid, Fluo-4 calcium (AID 434942); type: functional;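 also: potency of inhibitors blocking the TRPC4 calcium response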
T4 sequence (Q9QUQ5 whole entry): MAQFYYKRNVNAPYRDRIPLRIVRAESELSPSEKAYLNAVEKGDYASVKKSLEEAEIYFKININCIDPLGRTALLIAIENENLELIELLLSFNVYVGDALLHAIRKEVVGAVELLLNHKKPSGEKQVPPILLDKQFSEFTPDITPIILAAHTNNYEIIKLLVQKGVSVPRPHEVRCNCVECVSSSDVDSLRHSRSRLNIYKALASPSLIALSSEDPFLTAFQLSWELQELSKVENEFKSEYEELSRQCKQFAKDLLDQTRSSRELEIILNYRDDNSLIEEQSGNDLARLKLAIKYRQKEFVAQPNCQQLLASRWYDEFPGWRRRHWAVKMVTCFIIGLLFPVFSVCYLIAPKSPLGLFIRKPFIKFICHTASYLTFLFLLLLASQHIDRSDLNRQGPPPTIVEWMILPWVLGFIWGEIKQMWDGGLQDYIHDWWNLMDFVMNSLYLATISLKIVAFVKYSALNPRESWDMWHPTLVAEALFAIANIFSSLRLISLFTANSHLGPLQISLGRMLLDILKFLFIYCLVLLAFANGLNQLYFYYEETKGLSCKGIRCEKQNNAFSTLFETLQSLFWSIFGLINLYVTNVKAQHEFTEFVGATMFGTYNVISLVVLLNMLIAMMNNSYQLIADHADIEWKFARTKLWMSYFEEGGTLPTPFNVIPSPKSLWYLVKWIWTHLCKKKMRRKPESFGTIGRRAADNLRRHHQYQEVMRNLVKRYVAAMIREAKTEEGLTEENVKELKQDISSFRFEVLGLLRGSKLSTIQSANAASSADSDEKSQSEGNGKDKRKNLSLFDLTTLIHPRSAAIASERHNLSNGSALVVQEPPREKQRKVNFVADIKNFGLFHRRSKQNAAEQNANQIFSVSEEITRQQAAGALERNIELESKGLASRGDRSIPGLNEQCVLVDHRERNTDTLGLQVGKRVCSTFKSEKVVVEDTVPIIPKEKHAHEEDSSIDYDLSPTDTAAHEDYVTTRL

[5] = target: T3, NADPH oxidase 1; experiment: Luminescence-based cell-based dose response assay to identify inhibitors of NADPH oxidase 1 (NOX1).; type: functional
[6] = system: Jurkat; experiment: SAR Analysis of small molecule inhibitors of T-cell specific antigen receptor-induced NF-kB activation in a Jurkat cell line using a luminescence assay - Set 2. [Related pubchem assays (depositor defined):AID435003, AID435012, AID465]; type: functional, cell-based; settings: Homo sapiens
[7] = system: HeLa; experiment: Cytotoxicity counterscreen assay for transcriptional activators of heat shock protein 70 (Hsp70). [Related pubchem assays: 1203, 1252 ]; type: functional; settings: Homo sapiens;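 also: cells exposed to compound for 16 hours before readout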
[8] = system: HEK293; experiment: SAR Analysis of small molecule inhibitors of T-cell specific antigen receptor-induced NF-kB activation in a HEK-293T cell line using a luminescence assay - Set 2. [Related pubchem assays (depositor defined):AID435003, AID435012, AID489026]; type: functional, cell-based; settings: Homo sapiens
[9] = system: HEK293; experiment: cytotoxicity in HEK293T NF-kB-Luc cells, SAR follow-up, cytotoxicity control for NF-kB activator project, cell-based, resazurin fluorescence (AID 493251); type: functional; settings: Homo sapiens
[10] = target: T5, Microphthalmia-associated transcription factor (Homo sapiens, UniProt O75030); experiment: TRPM1 promoter luciferase signal decrease, dose response, MITF inhibitor project, cell-based, SK-MEL-5, cherry-picked, set 3 (AID 493073); type: functional
T5 sequence (O75030 whole entry): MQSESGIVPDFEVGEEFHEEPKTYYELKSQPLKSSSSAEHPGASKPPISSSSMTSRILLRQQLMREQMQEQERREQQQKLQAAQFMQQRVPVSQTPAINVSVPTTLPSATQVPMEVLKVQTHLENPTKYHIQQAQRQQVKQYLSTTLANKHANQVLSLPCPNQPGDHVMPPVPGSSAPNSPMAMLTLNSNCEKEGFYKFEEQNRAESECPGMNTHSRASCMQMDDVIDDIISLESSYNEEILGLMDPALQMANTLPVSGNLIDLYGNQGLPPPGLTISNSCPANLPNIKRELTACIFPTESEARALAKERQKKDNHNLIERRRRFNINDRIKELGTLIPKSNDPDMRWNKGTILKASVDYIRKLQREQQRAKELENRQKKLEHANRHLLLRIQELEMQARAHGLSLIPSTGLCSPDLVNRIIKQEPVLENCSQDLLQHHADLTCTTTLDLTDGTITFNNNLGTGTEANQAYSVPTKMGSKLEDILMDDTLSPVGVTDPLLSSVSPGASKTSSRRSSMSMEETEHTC

- EC50 [1]: 23.4 µM (active)
Structure (SMILES): O=C(c1cc2sccc2n1Cc1ccccc1)N1CCc2ccccc21

- EC50 [2]: > 195 µM (not active)
- IC50 [3]: 2.36 µM (active)
- EC50 [4]: 7.5 µM (active)
- IC50 [5]: 1 µM (active)
Structure (SMILES): CC(=O)c1ccc2c(c1)N(C)c1ccccc1S2

Structure (SMILES): O=C(Nc1ccc(N2CCCC2)c(Cl)c1)c1ccc([N+](=O)[O-])o1
- IC50 [6]: 17.8 µM (active)
- CC50 [7]: 5.12 µM (active)
- IC50 [8]: 33.9 µM (inactive)
- IC50 [9]: 42 µM (inactive)
- AC50 [10]: 11.1 µM (active)
